Test results: patent US10758534B2 (Vertex Pharmaceuticals Incorporated, priority 2014, dated 2020)
Where two headings read alike, the source gives them in different places.

Target: T1, F508del (Homo sapiens, UniProt P13569, DEL508-508)
T1 construct: expressed in transfected cells
Assay: Protocol 2: FRET membrane potential optical assay (VIPR), identification of correction compounds
Format: cell-based
How it was run: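 Mouse NIH3T3 cells, stable F508del; cpd 16 hrs, 37° C., serum-free; pos ctrl 27° C. 16 hrs. Rinse in Krebs Ringers, dye load, then add 10 μM forskolin + 20 μM genistein with Cl^−-free (gluconate) medium; depolarization by FRET voltage dyes.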

[1] = F508del CFTR modulator activity, compounds of Table 1, read-out: EC30
[2] = Table 3, compounds of Table 1 as modulators of CFTR activity, protocol not stated

T1 sequence (P13569 with tags, fused parts or gaps DEL508-508): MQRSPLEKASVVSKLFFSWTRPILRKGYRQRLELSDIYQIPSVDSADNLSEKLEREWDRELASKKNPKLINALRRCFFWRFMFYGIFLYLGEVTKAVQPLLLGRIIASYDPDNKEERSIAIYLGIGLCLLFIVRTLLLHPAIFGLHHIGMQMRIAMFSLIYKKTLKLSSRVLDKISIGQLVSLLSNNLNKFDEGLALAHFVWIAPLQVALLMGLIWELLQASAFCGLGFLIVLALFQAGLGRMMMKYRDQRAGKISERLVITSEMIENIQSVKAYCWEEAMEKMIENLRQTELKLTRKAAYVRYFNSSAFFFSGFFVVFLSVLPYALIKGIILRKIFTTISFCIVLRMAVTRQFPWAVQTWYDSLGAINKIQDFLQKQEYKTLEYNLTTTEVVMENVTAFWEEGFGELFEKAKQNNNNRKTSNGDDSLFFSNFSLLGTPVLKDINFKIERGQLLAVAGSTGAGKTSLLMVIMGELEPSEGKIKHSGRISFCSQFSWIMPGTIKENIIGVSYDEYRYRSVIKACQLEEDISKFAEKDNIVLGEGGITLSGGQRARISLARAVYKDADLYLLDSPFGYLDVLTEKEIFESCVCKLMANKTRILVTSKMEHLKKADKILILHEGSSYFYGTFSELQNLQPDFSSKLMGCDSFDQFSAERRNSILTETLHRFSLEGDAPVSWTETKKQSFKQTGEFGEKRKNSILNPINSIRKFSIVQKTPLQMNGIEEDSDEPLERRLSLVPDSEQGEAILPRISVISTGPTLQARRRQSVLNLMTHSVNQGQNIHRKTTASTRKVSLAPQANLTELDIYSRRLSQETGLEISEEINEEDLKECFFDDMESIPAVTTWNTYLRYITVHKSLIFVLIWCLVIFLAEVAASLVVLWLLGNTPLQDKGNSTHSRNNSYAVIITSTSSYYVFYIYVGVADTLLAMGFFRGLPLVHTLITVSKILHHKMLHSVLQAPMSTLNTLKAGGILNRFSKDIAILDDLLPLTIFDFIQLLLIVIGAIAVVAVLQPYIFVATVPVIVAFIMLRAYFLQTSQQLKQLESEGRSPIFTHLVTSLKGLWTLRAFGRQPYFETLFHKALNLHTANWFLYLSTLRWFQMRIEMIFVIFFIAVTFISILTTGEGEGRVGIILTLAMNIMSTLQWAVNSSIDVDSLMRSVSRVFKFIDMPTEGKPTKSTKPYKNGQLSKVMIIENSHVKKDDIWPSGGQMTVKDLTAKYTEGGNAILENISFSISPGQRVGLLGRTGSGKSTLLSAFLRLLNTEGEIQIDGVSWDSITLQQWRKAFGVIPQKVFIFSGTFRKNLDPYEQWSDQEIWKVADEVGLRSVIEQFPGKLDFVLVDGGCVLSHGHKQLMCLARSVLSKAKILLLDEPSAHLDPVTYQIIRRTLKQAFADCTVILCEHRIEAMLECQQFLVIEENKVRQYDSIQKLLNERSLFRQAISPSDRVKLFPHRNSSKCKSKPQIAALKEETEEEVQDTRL

EC30 [1] [nM] | EC30 [2] | Structure (SMILES) | also measured
< 3000 |  | Cc1cccc(-c2ccc(C(=O)NS(=O)(=O)c3ccc[nH]c3=O)c(N3C[C@@H](C)CC3(C)C)n2)c1C [Compound 2073, 6-(2,3-dimethylphenyl)-N-[(2-oxo-1H-pyridin-3-yl)sulfonyl]-2-[(4S)-2,2,4-trimethylpyrrolidin-1-yl]pyridine-3-carboxamide] | 
 | +++ (“+++” means <3 uM) | Cc1cc(C)c(CN2Cc3ccccc3[C@@H]2C(=O)NS(=O)(=O)c2cccc(N)c2)c(C)c1 [Compound 310, (1R)—N-(3-aminophenyl)sulfonyl-2-[(2,4,6-trimethylphenyl)methyl]isoindoline-1-carboxamide] | 
< 3000 |  | CC(C)Cc1ccc(C(=O)NS(=O)(=O)c2ccc[nH]c2=O)c(N2C[C@@H](C)CC2(C)C)n1 [Compound 2467, 6-isobutyl-N-[(2-oxo-1H-pyridin-3-yl)sulfonyl]-2-[(4S)-2,2,4-trimethylpyrrolidin-1-yl]pyridine-3-carboxamide] | 
 | ++ (“++” means between 3 uM and 10 uM) | Cc1cc(F)cc(-c2nc(C(C)(C)C)ccc2C(=O)NS(=O)(=O)c2cccc(N)c2)c1 [Compound 237, N-(3-aminophenyl)sulfonyl-6-tert-butyl-2-(3-fluoro-5-methyl-phenyl)pyridine-3-carboxamide] | 
 | +++ (“+++” means <3 uM) | Cc1cccc(C)c1Cn1nc(-c2cccc(C(F)F)c2)cc1C(=O)NS(=O)(=O)c1ccccc1 [Compound 315, N-(benzenesulfonyl)-5-[3-(difluoromethyl)phenyl]-2-[(2,6-dimethylphenyl)methyl]pyrazole-3-carboxamide] | 
 | +++ (“+++” means <3 uM) | CCOc1ccccc1-c1cc(C(=O)NS(=O)(=O)c2ccccc2)n(Cc2c(C)cccc2C)n1 [Compound 152, N-(benzenesulfonyl)-2-[(2,6-dimethylphenyl)methyl]-5-(2-ethoxyphenyl)pyrazole-3-carboxamide] | 
< 3000 |  | CC1CN(c2ncccc2C(=O)NS(=O)(=O)c2cccc(OC3C=CCCC3)n2)C(C)(C)C1 (stereo not drawn) [Compound 2147, N-[(6-cyclohex-2-en-1-yloxy-2-pyridyl)sulfonyl]-2-(2,2,4-trimethylpyrrolidin-1-yl)pyridine-3-carboxamide] | 
< 3000 |  | Cc1cc(-c2ccc(C(=O)NS(=O)(=O)c3cccnc3N)c(N3C[C@@H](C)CC3(C)C)n2)ccc1F [Compound 2052, N-[(2-amino-3-pyridyl)sulfonyl]-6-(4-fluoro-3-methyl-phenyl)-2-[(4S)-2,2,4-trimethylpyrrolidin-1-yl]pyridine-3-carboxamide] | 
 | +++ (“+++” means <3 uM) | CCCOc1cc(-c2ccc(C(=O)NS(=O)(=O)c3cccc(N)n3)c(N3CC(C)CC3(C)C)n2)ccn1 (stereo not drawn) [Compound 491, N-[(6-amino-2-pyridyl)sulfonyl]-6-(2-propoxy-4-pyridyl)-2-(2,2,4-trimethylpyrrolidin-1-yl)pyridine-3-carboxamide] | 
 | +++ (“+++” means <3 uM) | Cc1cccc(C)c1Cn1nc(-c2cccc(C(F)(F)F)c2)cc1C(=O)NS(=O)(=O)c1ccccc1 [Compound 220, N-(benzenesulfonyl)-2-[(2,6-dimethylphenyl)methyl]-5-[3-(trifluoromethyl)phenyl]pyrazole-3-carboxamide] | 
 | +++ (“+++” means <3 uM) | Cc1cc(C)c(Oc2nc(-n3cc(C(F)(F)F)cn3)ccc2C(=O)NS(=O)(=O)c2cccc(N)n2)c(C)c1 [Compound 691, N-[(6-amino-2-pyridyl)sulfonyl]-6-[4-(trifluoromethyl)pyrazol-1-yl]-2-(2,4,6-trimethylphenoxy)pyridine-3-carboxamide] | 
3000 to 10000 |  | CCC(CC)N1CCN(c2cccc(S(=O)(=O)NC(=O)c3cccnc3N3CC(C)CC3(C)C)n2)CC1 (stereo not drawn) [Compound 2565, N—[[6-[4-(1-ethylpropyl)piperazin-1-yl]-2-pyridyl]sulfonyl]-2-(2,2,4-trimethylpyrrolidin-1-yl)pyridine-3-carboxamide] | 
 |  | CC(C)COc1cc(F)cc(-c2ccc(C(=O)NS(=O)(=O)c3cccc(N)n3)c(C3CC(C)(C)CC3(C)C)n2)c1 (single isomer, unassigned) [Compound 2492, N-[(6-amino-2-pyridyl)sulfonyl]-6-(3-fluoro-5-isobutoxy-phenyl)-2-(2,2,4,4-tetramethylcyclopentyl)pyridine-3-carboxamide] | EC30 (F508del CFTR modulator activity, compounds of Table 1): +++ (“+++” means <3 uM)
 | +++ (“+++” means <3 uM) | COc1ncccc1-c1ccc(C(=O)NS(=O)(=O)c2cccc(N)n2)c(N2CC(C)CC2(C)C)n1 (stereo not drawn) [Compound 526, N-[(6-amino-2-pyridyl)sulfonyl]-6-(2-methoxy-3-pyridyl)-2-(2,2,4-trimethylpyrrolidin-1-yl)pyridine-3-carboxamide] | 
 | +++ (“+++” means <3 uM) | Cc1cccc(C)c1Cn1nc(-c2ccccc2F)cc1C(=O)NS(=O)(=O)c1ccccc1 [Compound 109, N-(benzenesulfonyl)-2-[(2,6-dimethylphenyl)methyl]-5-(2-fluorophenyl)pyrazole-3-carboxamide] | 
< 3000 |  | Cc1cc(-c2ccc(C(=O)NS(=O)(=O)c3cccc(N)n3)c(N3C[C@@H](C)CC3(C)C)n2)cc(OC(C)C)n1 [Compound 2306, N-[(6-amino-2-pyridyl)sulfonyl]-6-(2-isopropoxy-6-methyl-4-pyridyl)-2-[(4S)-2,2,4-trimethylpyrrolidin-1-yl]pyridine-3-carboxamide] | 
> 10000 |  | Nc1cccc(S(=O)(=O)NC(=O)c2cccnc2Oc2ccccc2-c2nc3ccccc3o2)n1 [Compound 2544, N-[(6-amino-2-pyridyl)sulfonyl]-2-[2-(1,3-benzoxazol-2-yl)phenoxy]pyridine-3-carboxamide] | 
< 3000 |  | CC1CN(c2ncc(-c3cc(F)cc(F)c3)cc2C(=O)NS(=O)(=O)c2cccc(N)n2)C(C)(C)C1 (stereo not drawn) [Compound 2259, N-[(6-amino-2-pyridyl)sulfonyl]-5-(3,5-difluorophenyl)-2-(2,2,4-trimethylpyrrolidin-1-yl)pyridine-3-carboxamide] | 
 | +++ (“+++” means <3 uM) | CC(C)(C)c1ccc(C(=O)NS(=O)(=O)c2cccc(N)n2)c(N2CCC[C@H](c3ccccc3)C2)n1 [Compound 626, N-[(6-amino-2-pyridyl)sulfonyl]-6-tert-butyl-2-[(3R)-3-phenyl-1-piperidyl]pyridine-3-carboxamide] | 
< 3000 |  | CC(C)OC(=O)N1CCC=C(c2ccc(C(=O)NS(=O)(=O)c3cccc(N)n3)c(N3C[C@@H](C)CC3(C)C)n2)C1 [Compound 2622, isopropyl 5-[5-[(6-amino-2-pyridyl)sulfonylcarbamoyl]-6-[(4S)-2,2,4-trimethylpyrrolidin-1-yl]-2-pyridyl]-3,6-dihydro-2H-pyridine-1-carboxylate] | 
 | +++ (“+++” means <3 uM) | COc1cccc2c1cc(C(=O)NS(=O)(=O)c1ccccc1)n2Cc1c(C)cc(C)cc1C [Compound 348, N-(benzenesulfonyl)-4-methoxy-1-[(2,4,6-trimethylphenyl)methyl]indole-2-carboxamide] | 
 | +++ (“+++” means <3 uM) | Cc1cc(C)c(Oc2nc3c(cc2C(=O)NS(=O)(=O)c2cccc(N)n2)CCC(C)(C)C3)c(C)c1 [Compound 665, N-[(6-amino-2-pyridyl)sulfonyl]-7,7-dimethyl-2-(2,4,6-trimethylphenoxy)-6,8-dihydro-5H-quinoline-3-carboxamide] | 
< 3000 |  | CC(C)(C)c1ccc(C(=O)NS(=O)(=O)c2cccc(N)n2)c(N2CCC(CC3CC3)C2(C)C)n1 (stereo not drawn) [Compound 2242, N-[(6-amino-2-pyridyl)sulfonyl]-6-tert-butyl-2-[3-(cyclopropylmethyl)-2,2-dimethyl-pyrrolidin-1-yl]pyridine-3-carboxamide] | 
 | ++ (“++” means between 3 uM and 10 uM) | CC(C)Oc1ccc(-c2ccc(C(=O)NS(=O)(=O)c3cccc(N)n3)c(N3CCC4(CCO4)CC3)n2)cn1 [Compound 729, N-[(6-amino-2-pyridyl)sulfonyl]-6-(6-isopropoxy-3-pyridyl)-2-(3-oxa-7-azaspiro[3.5]nonan-7-yl)pyridine-3-carboxamide] | 
 | +++ (“+++” means <3 uM) | COCc1ccc(-c2ccc(C(=O)NS(=O)(=O)c3cccc(N)n3)c(Oc3c(C)cc(C)cc3C)n2)cc1 [Compound 66, N-[(6-amino-2-pyridyl)sulfonyl]-6-[4-(methoxymethyl)phenyl]-2-(2,4,6-trimethylphenoxy)pyridine-3-carboxamide] | 
 | ++ (“++” means between 3 uM and 10 uM) | Cc1cc(C)c(Oc2nc(C(C)(C)C)ccc2C(=O)NS(=O)(=O)c2cc[nH]c(=O)c2)c(C)c1 [Compound 113, 6-tert-butyl-N-[(2-oxo-1H-pyridin-4-yl)sulfonyl]-2-(2,4,6-trimethylphenoxy)pyridine-3-carboxamide] | 
< 3000 |  | CC1CN(c2ncccc2C(=O)NS(=O)(=O)c2cccc(N3CCCc4ccccc43)n2)C(C)(C)C1 (stereo not drawn) [Compound 2382, N—[[6-(3,4-dihydro-2H-quinolin-1-yl)-2-pyridyl]sulfonyl]-2-(2,2,4-trimethylpyrrolidin-1-yl)pyridine-3-carboxamide] | 
< 3000 |  | CC1CN(c2ncccc2C(=O)NS(=O)(=O)c2cccc(OCc3cccc4ccccc34)n2)C(C)(C)C1 (stereo not drawn) [Compound 2270, N—[[6-(1-naphthylmethoxy)-2-pyridyl]sulfonyl]-2-(2,2,4-trimethylpyrrolidin-1-yl)pyridine-3-carboxamide] | 

Structure (SMILES) | EC30 [1] [nM] | EC30 [2] | also measured
CC(C)COc1cc(F)cc(-c2ccc(C(=O)NS(=O)(=O)c3ccn[nH]3)c(N3CCCC(c4ccccn4)C3)n2)c1 (stereo not drawn) [Compound 677, 6-(3-fluoro-5-isobutoxy-phenyl)-N-(1H-pyrazol-5-ylsulfonyl)-2-[3-(2-pyridyl)-1-piperidyl]pyridine-3-carboxamide] |  | ++ (“++” means between 3 uM and 10 uM) | 
C[C@@H]1CN(c2nc(OC3CCCC3)c(F)cc2C(=O)NS(=O)(=O)c2cccc(N)n2)C(C)(C)C1 [Compound 2100, N-[(6-amino-2-pyridyl)sulfonyl]-6-(cyclopentoxy)-5-fluoro-2-[(4S)-2,2,4-trimethylpyrrolidin-1-yl]pyridine-3-carboxamide] | < 3000 |  | 
